# Assay results published in US20240342255A1, “TARGETING 3-KETODIHYDROSPHINGOSINE REDUCTASE (KDSR) IN CANCER” (UNIVERSITY OF MASSACHUSETTS, priority 2021, published 2024).
# “And” between values parts separate entries of the source, which are not always exact repeats. Equal entries are not always repeated. Residues, ends and D or L forms follow the SMILES beside them. *: point of attachment. Cbz = O=C(OCc1ccccc1)*
# Assays:
# Type in all cases: cell-based
# DLD1 cells [1] = assay: Cell morphology by light microscope / calnexin immunofluorescence
# DLD1 cells [2] = assay: Cell viability (CellTiter-Glo) with exogenous 3KDS treatment
# Protocol: Cell viability was measured using CellTiter-Glo 2.0 Cell Viability Assay (Promega), which measures the number of viable (metabolically active) cells in culture by quantitating the amount of ATP present. CellTiter-Glo (CTG) Reagent and 96 well plates containing the cells were equilibrated to room temperature, 20 ul of CTG reagent was added to each well of cells and incubated for 20 minutes protected from light. Luminescence was read with an integration time of 1.0 sec using the Beckman Coulter DTX880 Multimode Detector plate reader.
# For determination of relative viability as depicted in figures, CTG was measured at 2 different timepoints. The first viability measurement was taken as the baseline on the day after cells were plated to 96 wells, and the second viability measurement was taken at a later timepoint (1-5 days after baseline) to calculate the fold change viable cells over time for each condition (Day X CTG/Baseline CTG). These fold change values were then divided by the fold change of the control condition (=1.0) to determine the relative viability.
# DLD1 cells [3] = assay: Western blot of K48 ubiquitinated proteins; conditions: DLD1 cells treated with MG132 (FIG. 4C)
# Protocol: (§1) Cells were washed in cold PBS and resuspended in 1% Triton-X 100 containing protease inhibitor cocktail and lysed on ice. Following cell lysis, samples were centrifuged at 13,000 rpm at 4° C. for 10 min to remove cell debris and the supernatant (cell lysate) was collected. The protein concentration of each lysate was measured by Bradford Assay. Western blot samples were prepared by diluting lysates in 6× Laemmli Buffer and boiled at 95° C. for 10 min. Samples were loaded to polyacrylamide gels at equal protein concentrations and analyzed by standard SDS-PAGE western blotting techniques. Protein levels were detected using HRP-conjugated secondary antibodies and chemiluminescent substrates (Pierce ECL or Pico PLUS).
# DLD1 cells [4] = assay: Protein aggresome staining; conditions: 3 μM MG132, 18 hr
# Protocol: Cells were grown on coverslips coated with PDL/laminin and were stained for protein aggresomes at 9 days post lentiviral infection for CTRL or KDSR KO or 18 hr post treatment with vehicle or 3 uM MG132. Protein aggresomes were detected using the PROTOEOSTAT Aggresome detection kit (Enzo Life Sciences), which contains a dye that fluoresces upon intercalation into the cross-beta spine of protein structures found in misfolded and aggregated proteins. For aggresome staining, cells were fixed in 4% PFA, washed in PBS, and permeabilized in 0.5% TXB on ice with gentle shaking for 30 minutes. Cells were washed in PBS following permeabilization and were subsequently incubated with the Aggresome Detection Reagent diluted 1:2000 in PBS for 45 min at room temperature protected from light. Cells were washed with PBS after staining and coverslips were mounted to microscope slides using ProLong Gold Antifade Mountant containing DAPI. Cells were imaged using the Zeiss LSM700 confocal microscope and Zen Black 2012 Software.
# DLD1 cells [5] = assay: Lipid free viability assay; conditions: 15 μM myriocin, 72 hr, 10% charcoal stripped serum (FIG. 1F)
# Protocol: DLD1 cells were grown in media with 10% FBS (normal growth condition) or 10% charcoal stripped serum (lipid free condition) for 1 week prior to lentiviral infection for CRISPR-mediated gene KO. Cells were infected in 6 wells, selected with puromycin, and plated to 96 wells as described previously in the appropriate serum conditions throughout the entirety of the experiment. Baseline CTG was measured at day 7 post infection, and subsequently at day 10 post infection. For the myriocin treated condition, CTRL cells were treated with 15 μM myriocin at day 7 post infection and were treated for 72 hr at the time of day 10 CTG measurement. Viability was calculated over the course of 3 days of growth and measured relative to CTRL untreated condition.
# DLD1 cells [6] = assay: LC-MS quantification of 3KDS in cultured cells
# Protocol: The levels of 3-ketodihydrosphingosine (3KDS) were quantified in both cells grown in culture and in tumor tissues from the in vivo xenograft experiment. Lipid analysis was performed at the UCSD Lipidomics Core^17. For the in vitro experiment, DLD1 cells were infected for lentiviral transduction of pLCv2 with nontargeting CTRL guide, KDSR g1, or SPTLC1 g1. Cells were selected with puromycin for 5 days and were treated with the appropriate conditions (vehicle, 50 uM palmitate, 15 uM myriocin) at 6 days post infection. Cells were trypsinized, quickly washed 2× in cold PBS, centrifuged, and the cell pellet was collected for analysis at 8 days post lentiviral infection and 48 hr post treatment. 3KDS quantification was normalized to the protein content of n=3 independently prepared cell extracts for each condition.
# Samples were extracted with DCM/MeOH (1:1) and 1× internal standards were added to extracts. Samples were vortexed, sonicated for 10 minutes, and then centrifuged at 5000 rpm for 5 min. Samples were re-extracted, combined, and dried down in a speed vac. Samples were run on the ACQUITY UPLC System (Waters) on a Phenomenex Kinetex C18 column. Mass spectrometry analysis was performed on the Sciex 6500 Qtrap mass spectrometer and data were analyzed using Sciex Analyst and Multiquant software packages.
# DLD1 cells [7] = assay: Myriocin rescue and palmitate synergy viability experiments in KDSR KO cells
# Protocol: Cells were plated to 6 wells and infected with lentiviruses containing pLCv2 CTRL or guides targeting KDSR. Cells were selected with puromycin for 4-5 days and were then counted and plated to 96 well plates at 6 days post lentiviral infection at 600-800 cells/well in technical triplicate or quadruplicate. Baseline cell viability was read at 7 days post infection, at which time the other 96 well plates (to be read at later timepoints) were treated with DMSO vehicle or 2 uM myriocin for rescue experiments or with EtOH vehicle or 50 uM palmitate for synergy experiments. For myriocin rescue experiments, subsequent CTG readings were taken at days 3 and 5 post treatment (10 and 12 days post infection) to determine the effect of SPT inhibition on KDSR KO toxicity. For synergy experiments, subsequent CTG readings were taken at 24, 48, and 72 hr post treatment (8, 9, and 10 days post infection) to measure the effect of KDSR KO and palmitate treatment on cell viability relative to CTRL vehicle treated cells.
# To determine whether KDSR KO and 50 uM palmitate have a synergistic toxic effect on cells (FIG. 2C), we used the Bliss Independence Model. […]
# DLD1 cells [8] = assay: LC-MS quantification of sphingomyelin and ceramide after CRISPR-Cas9 gene KO; conditions: biological replicates (1)-(3); for Total (RATIO), Cer + SM by LC-MS / Cer (RATIO), total ceramide level by LC-MS / SM (RATIO), total sphingomyelin level by LC-MS: 8 days post lentiviral infection; for Cer (RATIO), total ceramide level by LC-MS / SM (RATIO), total sphingomyelin level by LC-MS: normalized intensities relative to internal standards per mg protein
# Protocol: DLD1 cells were plated to 6 wells and infected for lentiviral transduction of lentiCRISPR v2 with nontargeting CTRL guide, KDSR g1, or SPTLC1 g1, with each condition infected in biological triplicate. Cells were selected with puromycin for 5 days and collected for analysis at 8 days post lentiviral infection. Cells were trypsinized, quickly washed 2× in cold PBS, centrifuged, and the cell pellet was collected for analysis. Lipid analysis was performed at the UCSD Lipidomics Core^17. For quantification of sphingomyelin and ceramide species, samples were extracted via Butanol-Methanol (BUME) with 100 ul/sample. The lipid (top) layer was collected, solvent was removed, and samples were reconstituted in 100 ul LC solvent (18:1:1, IPA/DCM/MeOH). Samples were run on Reverse Phase-Ultra Performance Liquid Chromatography (Thermo Vanquish UPLC) on the Cortecs T3 C18 column. Mass spectrometry was performed on the Thermo Q Exactive Mass Spectrometer with MS/MS data dependent acquisition scan mode and analyzed with Lipid Data Analyzer (LDA) and LipidSearch software. All data are expressed as normalized intensities relative to exactly measured internal standards and constitute relative abundances per mg protein. For the identification of each lipid molecular species including its exact fatty acid composition, we used MS/MS footprinting techniques. Details of methods and nomenclature used were adapted from a previous study^18.
# Total sphingomyelin levels under each condition were calculated as the sum of 121 analytes and total ceramide levels as the sum of 81 analytes. The ratio of total sphingomyelin and ceramide levels in KDSR and SPTLC1 KO cells were calculated relative to CTRL cells as shown in FIG. 1e. The select species of sphingomyelins and ceramides shown in Extended Data FIG. 2 represent the top 10 most abundant species that were detected in all 3 biological replicate samples of the CTRL condition to show the effect of SPTLC1 and KDSR KO on the most abundant sphingolipids compared to CTRL.
# KDSR = assay: Western blot of KDSR protein after CRISPR/Cas9 targeting in non-cancerous cell lines; conditions: seven non-cancerous cell lines (THLE3, CCD841CON, CCD18Lu, HIEC6, HS67, GM05565, GM02037), FIGS. 10A-10G
# Protocol: as §1
# Western blots were performed to confirm that KDSR expression was reduced or eliminated in the cell line after CRISPR/Cas9 KO of KDSR. […] For each experiment, actin served as a loading control.
compound,measurement,setting,value
"CCCCCCCCCCCCCCCC(=O)C(N)CO (stereo not drawn) [3KDS, 3-ketodihydrosphingosine]",cell morphology after 3KDS treatment,"DLD1 cells [1]; wildtype DLD1 cells, 10 μM 3KDS, 24 hr (FIG. 2G)",aberrant ‘vacuolar’ morphology
same,effect of exogenous 3KDS on cell viability,"DLD1 cells [2]; DLD1 cells, various doses, 24 hr (FIG. 2B)",cell toxicity
same,toxicity of 3KDS in KDSR KO cells,"DLD1 cells [2]; KDSR g1 and g2 KO DLD1 cells, 5 μM 3KDS, 24 hr (FIG. 6)",even more toxic
"CC(C)C[C@@H](C=O)NC(=O)[C@H](CC(C)C)NC(=O)[C@H](CC(C)C)NC(=O)OCc1ccccc1 [MG132, MG-132] (Cbz-Leu-Leu-Leu-aldehyde)",levels of K48 ubiquitinated proteins,DLD1 cells [3],accumulation of K48 ubiquitinated proteins
same,protein aggresome formation,DLD1 cells [4],induced formation of protein aggresomes
same,morphological phenotype / ER structure,"DLD1 cells [1]; DLD1 cells, 3 μM MG132, 18 hr, light microscope and calnexin IF (FIG. 4D)",strongly resembled the aberrant enlarged ER structures
"CCCCCCC(=O)CCCCCC/C=C/C[C@@H](O)[C@H](O)[C@@](N)(CO)C(=O)O [myriocin, Myriocin]",viability in lipid-free serum,DLD1 cells [5],detrimental to cancer cell viability
same,3KDS accumulation in KDSR KO cells under SPT inhibition,"DLD1 cells [6]; KDSR KO DLD1 cells, 15 μM myriocin, 48 hr (FIG. 2F)",prevented 3KDS accumulation
same,effect of myriocin on viability of KDSR KO cells,"DLD1 cells [7]; 2 μM myriocin, 72 hr (FIG. 2D)",rescued against the loss of viability
same,morphology of KDSR KO cells under SPT inhibition,"DLD1 cells [1]; KDSR KO DLD1 cells, 15 μM myriocin, 48 hr (FIG. 2G)",rescued the aberrant morphological phenotype
"CCCCCCCCCCCCCCCC(=O)O [palmitate, Palmitic Acid]",accumulation of 3KDS,"DLD1 cells [6]; KDSR KO DLD1 cells treated with 50 μM palmitate, 48 hr, relative to CTRL vehicle (FIG. 2F)",800 fold
same,effect of palmitate on viability of KDSR KO cells (Bliss independence),"DLD1 cells [7]; 50 μM palmitate, 48 hr (FIG. 2C)",synergized with the toxic effect of KDSR KO
"KDSR g1: CRISPR-Cas9 guide RNA targeting KDSR, TGTGTGCAAACCAGAACAGG, SEQ ID NO: 4 (listed as DNA, chemistry not given here; listed as Homo sapiens)","Total (RATIO), Cer + SM by LC-MS",DLD1 cells [8],535.9 and 709.0 and 681.9
same,"Cer (RATIO), total ceramide level by LC-MS",DLD1 cells [8],67.9 and 101.4 and 99.2
same,"SM (RATIO), total sphingomyelin level by LC-MS",DLD1 cells [8],468.0 and 607.6 and 582.7
same,Cer (Percentage of total),DLD1 cells [8],12.7% and 14.3% and 14.5%
same,SM (Percentage of total),DLD1 cells [8],87.3% and 85.7% and 85.5%
same,KDSR expression after CRISPR/Cas9 targeting,KDSR,eliminated or substantially reduced
"KDSR g2: CRISPR-Cas9 guide RNA targeting KDSR, GGCAAACTTGGATGCAGAGT, SEQ ID NO: 5 (listed as DNA, chemistry not given here; listed as Homo sapiens)",KDSR expression after CRISPR/Cas9 targeting,KDSR,eliminated or substantially reduced
"SPTLC1 g1: CRISPR-Cas9 guide RNA targeting SPTLC1, GTGCTACTCACCTTAACCCT, SEQ ID NO: 2 (expressed or natural sequence; listed as Homo sapiens)","Total (RATIO), Cer + SM by LC-MS",DLD1 cells [8],720.1 and 485.8 and 520.4
same,"Cer (RATIO), total ceramide level by LC-MS",DLD1 cells [8],66.2 and 36.6 and 66.9
same,"SM (RATIO), total sphingomyelin level by LC-MS",DLD1 cells [8],653.9 and 449.2 and 453.5
same,Cer (Percentage of total),DLD1 cells [8],9.2% and 7.5% and 12.9%
same,SM (Percentage of total),DLD1 cells [8],90.8% and 92.5% and 87.1%
